Assay results from publication PMC6977461 (Chemical Science, 2019).
*1 amine or outer side, *2 acyl side, *3 side chain or, on linkers, in order; H or OH if unused. The star is where a group is joined. X1 = C[C@@H](CN*)NC(=O)[C@@H](N)Cc1c[nH]cn1; CO = O=C([*:1])[*:2]

Assays:
mouse GLP-1 receptor = biological target: T1, mouse GLP-1 receptor (Mus musculus, UniProt O35659); assay: cAMP production in βTC6 cells expressing GLP-1R endogenously (Method C2); type: cell-based
T1 construct: βTC6 cells which express GLP-1R endogenously; host or cells: βTC6 cells
T1 sequence (O35659 22-463): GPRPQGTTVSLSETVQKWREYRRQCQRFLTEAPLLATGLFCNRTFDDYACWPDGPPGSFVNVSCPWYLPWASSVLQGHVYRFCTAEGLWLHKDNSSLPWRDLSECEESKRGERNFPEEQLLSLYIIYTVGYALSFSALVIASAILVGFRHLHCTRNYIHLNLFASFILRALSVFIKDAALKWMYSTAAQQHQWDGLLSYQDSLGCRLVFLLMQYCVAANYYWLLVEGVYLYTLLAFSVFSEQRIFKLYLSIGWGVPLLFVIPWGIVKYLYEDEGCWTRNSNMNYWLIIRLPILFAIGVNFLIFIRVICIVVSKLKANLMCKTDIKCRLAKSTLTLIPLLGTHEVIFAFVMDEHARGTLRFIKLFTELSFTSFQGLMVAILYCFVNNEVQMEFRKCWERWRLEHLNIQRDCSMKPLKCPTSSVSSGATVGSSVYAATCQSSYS
Method:  HEK-293T cells (Multispan inc., lot#.DC1267-062017) were suspended in cell culture media
(DMEM 1X + GlutaMAX (Gibco 31966-021)) complemented with FBS 10% (Sigma Aldrich
 βTC6 cells were suspended in HBSS buffer (Invitrogen) complemented with 20 mM HEPES (pH
In vitro pharmacology on HEK-293T cells (EC50: Method C1)
cells (Multispan inc., lot#.DC1267-062017) was determined by measuring their effects on cAMP
production using the HTRF detection method (performed by UREkA SARL). The cells were distributed
in 384-well microplates at a density of 1.0x10^4 cells/well. Stock solutions of the test compounds or the
reference agonist were prepared at a concentration of 1 mM in DMSO. Then, compounds to be tested
were diluted in cell culture media and transferred to the plate containing the cells to reach final assay

C57BL/6J mice = assay: dose-response study in healthy mice, IPGTT 6 h after agonist; type: in vivo, mouse
Method: Mice were lightly fasted (4 hours) before IP administration of varying doses of each agonist or vehicle (100 µL saline). After a further 6 hours, blood glucose was measured (GlucoRx) from the tail followed by IP administration of 2 g/kg 20% glucose. Blood glucose was monitored at 20, 40 and 60 minute time- […]
performed on the area-under-curve for each set of data.
Study in db/db mice (15 days).
After the acclimation period of 5 days, male db/db mice 8 weeks old (Charles River laboratories) were randomized into groups (n=10) according to their body weight, HOMA-IR and HbA1C measured after an overnight fast and 8 non diabetic mice were excluded. Mice were chronically treated during 15 days via s.c. route (once daily) at around 8AM with the vehicle or with 100 µg kg-1 (25 nmol kg-1) of the oligomers. Formulation: 20 µg mL-1 in PBS 1×. On the 7th day of treatment, fed blood glucose was […]
On the 12th day of treatment, mice were fasted 6 hours and an OGTT (glucose 1 g kg-1 p.o.) was performed 6 hours (2 PM) after the dosing. Blood glucose was […]
On the 15th day of treatment, mice were fasted 6 hours and an ITT (insulin 2 U kg-1 i.p.) was performed 6 hours (2 PM) after the dosing. […]
samples were collected for measuring HbA1c just before the start of the treatments and at the end of […]
Fifteen mice (male C57BL/6J mice (Janvier Labs, France) 9 weeks old, 20-25 g) were treated with GLP-1 analogues via i.v. injections (2 mg kg-1) formulated at 1 mg mL-1 in PBS 1×. After different time points mice were sacrificed and blood sample were collected. The plasma was separated by centrifugation and the samples were frozen at -80°C before analysis. A volume of 400 µL of each sample of plasma was mixed with 1 ml of acetonitrile to precipitate the protein and extract the compound. The sample were then vortexed and centrifuged (15 000 × g, 5 min, 16 °C) to sediment the precipitated protein.
The supernatant was analysed by LC-MS/MS using a UHPLC coupled to LC-MS 8030 Shimadzu triple […]
Molecular dynamics simulation of GLP-1R in complex with ureidopeptide 3 […]
Human GLP-1R which shares […]

INS-1 832/3 cells = assay: insulin secretion in vitro in INS-1 832/3 cells; type: cell-based; details: 16 h stimulation at 11 mM glucose, n = 5, versus non-ureido parents
GLP-1R = GLP-1R (Homo sapiens, UniProt P43220); assay: signal bias, cAMP vs β-arrestin-2, PathHunter CHO-GLP-1R cells (operational model); type: cell-based; parameters: host or cells: PathHunter CHO-GLP-1R-βarr2 cells; details: relative to GLP-1-NH2 (2), n = 5
Method: signal measured at 665 nm by that measured at 620 nm (ratio). The results are expressed as a percent […]
tested in each experiment at several concentrations to generate a concentration-response curve from which its EC50 value and SE are calculated using GraphPad Prism.
In vitro pharmacology on immortalised CHO-GLP-1R cells (EC50: Method C3) PathHunter CHO-GLP-1R cells were stimulated for 30 min at 37°C with indicated concentration of agonist in serum free medium without phosphodiesterase inhibitors. The reaction was terminated by addition of cAMP detection reagents (cAMP Dynamic 2, Cisbio) and read by HTRF.
β-arrestin-2 recruitment assay […]
agonist in serum free medium. The reaction was terminated by addition of PathHunter detection reagents (DiscoverX) and luminescent signal recorded.
Calculation of signal bias
Biased signalling was quantified using a modified form of the operational model.[6] LogR values were calculated for each ligand in each assay, and ∆LogR were determined by subtracting from the […]
Bias was then determined as ∆∆LogR by subtracting ∆LogR for […]

[1] = mouse plasma degradation assay (Methods MP1-MP3); type: in vitro ADME; details: mouse plasma diluted 1/1 with PBS; mouse plasma/PBS pH 7.4 (1/1), 5 µM, 37 °C, acetonitrile quench, LC-MS extracted ion chromatogram; MP1 for 2-8, MP2 for 9-11, MP3 for 12-14; mean, n = 3; read-out: Mouse plasma t1/2 (converted)
Method: The oligomer was then diluted 1/50 with a solution of plasma/PBS pH 7.4 (1/1) to afford a final concentration of 5μM and incubated at 37°C. […] (t = 0 min was determined using the reaction without plasma). The samples were frozen at -80°C before analysis. […] The supernatant was analyzed by LC-MS. The time course of oligomer degradation was determined by integrating the area of the peak in the extracted ion chromatogram. […] The oligomer was then diluted 1/50 with a solution of plasma/PBS pH 7.4 (1/1) to afford a final concentration of 5μM and incubated at 37°C. […] The oligomer was then diluted 1/50 with a solution of plasma/PBS pH 7.4 (1/1) to afford a final concentration of 5μM and incubated at 37°C. […] Animals. […] A standard chow diet (RM1 (E) 801492, SDS) and tap water were provided ad libitum. All animal protocols done by Physiogenex S.A.S were reviewed and approved by the local (Comité […] national ([…]

[2] = healthy C57BL/6J mice, 0.01 to 10 nmol kg-1 i.p., IPGTT 6 h after dose, 3-parameter fit of AUC, n = 8

GLP-1R, sequence (P43220 24-463): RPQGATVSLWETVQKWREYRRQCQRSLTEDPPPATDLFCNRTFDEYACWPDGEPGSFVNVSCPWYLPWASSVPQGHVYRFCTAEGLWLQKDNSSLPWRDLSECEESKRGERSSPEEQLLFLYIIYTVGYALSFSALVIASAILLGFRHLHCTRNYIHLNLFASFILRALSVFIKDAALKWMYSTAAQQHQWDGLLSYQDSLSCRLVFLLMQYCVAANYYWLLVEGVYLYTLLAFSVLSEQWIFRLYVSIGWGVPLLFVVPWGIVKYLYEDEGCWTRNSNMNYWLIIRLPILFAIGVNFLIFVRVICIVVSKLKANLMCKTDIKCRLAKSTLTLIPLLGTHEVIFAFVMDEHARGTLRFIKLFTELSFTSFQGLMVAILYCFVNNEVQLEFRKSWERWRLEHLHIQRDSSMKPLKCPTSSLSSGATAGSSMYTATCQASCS

{X1-CO}-EGTFTSDLSKQLEEEAVRLFIEWLKNGGPSSGAPPSKKKKKK-NH2 [compound 14]
Potency (%), Table S1 (mouse GLP-1 receptor; from EC50 in βTC6 cAMP assay, footnote: compare to GLP-1-NH2 (2)): 118%
EC50 (mouse GLP-1 receptor; read-out: EC50 (GLP-1R potency), Table S1): 0.09 nM
improvement of ED50 versus parent peptide (C57BL/6J mice; 11 versus exenatide (9), 14 versus LixiL (13)): five-fold improvement
ED50 (printed in Fig. 4) (C57BL/6J mice; [2]): 0.47
ED50 in vivo (C57BL/6J mice; [2]): 0.46 nmol/kg
insulin release in vitro (INS-1 832/3 cells): significantly increased insulin release
signal bias (cAMP vs β-arrestin-2) (GLP-1R): strong preference for cAMP signalling
half-life at 5 µM [1]: 6.6 h
